# Legend:
# [1] = Lipophilicity, log D of compound; assay type: physicochemical; conditions: octanol/water
# [2] = Efflux ratio in human Caco2 cells; assay type: ADME, cell-based; conditions: Caco-2
Compound,logD [1],efflux ratio [2]
C=CC(=O)N1CCN2c3c(cnc4cc(-c5c(O)cccc5F)c(Cl)cc34)NC(=O)[C@H]2C1,3,
C=CC(=O)N1CCN2c3c(cnc4cc(-c5c(O)cccc5F)c(Cl)cc34)N(C)C(=O)[C@H]2C1,3,0.9
